In patent publication US20230278972A1, “SUBSTITUTED HALOALKYL SULFONANILIDE HERBICIDES” (FMC Corporation, priority 2020, published 2023):

Tests used:
Format in all cases: in vivo
[1] = tested on: Oat, Wild (wild oat, Avena fatua); experiment: Test A1 preemergence, Oat, Wild; conditions: 125 g ai/ha, 0 to 100 scale (0 no effect, 100 complete control)
Outline: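 Both timings started from seed in a loam-sand blend. Preemergence pots got a directed soil application immediately; postemergence pots were sprayed when seedlings had one or two leaves and stood 2–10 cm. Each compound was prepared in a non-phytotoxic solvent plus surfactant.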

[2] = tested on: blackgrass (Alopecurus myosuroides); experiment: Test A1 postemergence, blackgrass; conditions: 0 to 100 scale (0 no effect, 100 complete control)
Outline: (§1)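 Pre: seeds in loam/sand blend, directed soil spray. Post: potted plants, same soil, 2–10 cm, 1–2 leaf stage. Chemicals in non-phytotoxic solvent + surfactant for both.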

kochia (Bassia scoparia) = experiment: Test A1 postemergence, kochia; conditions: 0 to 100 scale (0 no effect, 100 complete control)
Outline: as §1

[3] = tested on: galium (catchweed bedstraw, Galium aparine); experiment: Test A1 postemergence, galium; conditions: 0 to 100 scale (0 no effect, 100 complete control)
Outline: as §1

[4] = tested on: horseweed (Erigeron canadensis); experiment: Test A1 postemergence, horseweed; conditions: 0 to 100 scale (0 no effect, 100 complete control)
Outline: as §1

[5] = tested on: barnyardgrass (Echinochloa crus-galli); experiment: Test B1 flooded paddy test, barnyardgrass; conditions: 250 g ai/ha, Flood, applied to paddy water, 2-leaf stage, visually evaluated after 10 to 14 days
Text: A dash (-) response means no test result.

[6] = Postemergence, 125 g ai/ha, 10 days

COc1cccc2c1C(=O)N(c1cc(N(COC(=O)C(C)(C)C)S(=O)(=O)Cl)c(C)cc1C)C2 [Compound 413]
Plant response rating, Oat, Wild [1]: 0 | Blackgrass plant response rating ([2]; 31 g ai/ha, postemergence): 0 | Plant response rating, Blackgrass [2, 6]: 0 | Kochia plant response rating (kochia (Bassia scoparia); 31 g ai/ha, postemergence): 20 | Plant response rating, Kochia (kochia (Bassia scoparia); [6]): 80 | Galium plant response rating ([3]; 31 g ai/ha, postemergence): 50 | Plant response rating, Galium [3, 6]: 100 | Horseweed plant response rating ([4]; 31 g ai/ha, postemergence): 40 | Plant response rating, Horseweed [4, 6]: 90 | Plant response rating, Barnyardgrass (0 to 100 scale, 0 is no effect, 100 is complete control) [5]: 40
